Source: patent publication US9512152B2, “Phospholipid compound containing unsaturated fatty acid derivative having cyclopropane ring” (NISHIZAKI BIOINFORMATION RESEARCH INSTITUTE, priority 2013, dated 2016)

How the values were obtained:
[1] = induced by scopolamine; non-patent documents 1, 2; cited from earlier work
[2] = test system: synapse transmission; details: patent document 1; cited from earlier work
[3] = patent document 2; cited from earlier work
[4] = test system: 3T3L1-GLUT4myc adipocytes; assay: Analysis of GLUT4 trafficking (cellular membrane transport of GLUT4); assay type: cell-based; details: 1 μM, 20 min, FIG. 7
Method: 3T3L1-GLUT4myc fibroblast strain expressing GLUT4myc was used. The cells are constructed by inserting human c-MYC epitope (14 amino acids) into the first ectodomain. The cells were cultured in Dulbecco's Modified Eagles Medium (DMEM) added with 10% (v/v) bovine serum, penicillin (final concentration, 100 U/ml) and streptomycin (final concentration, 0.1 mg/ml) in a humid environment under 5% CO2 and 95% air at 37° C. When the cells reached confluence (day 0), the medium was exchanged with DMEM added with 10% (v/v) fetal bovine serum (FBS), 1 μM dexamethasone, 0.5 mM 3-isobutyl-methyl-xanthine and 0.1 mg/ml insulin to allow for differentiation from fibroblast into adipocyte. The medium was exchanged with DMEM added with 10% (v/v) FBS on day 3, day 7 and day 11. On day 14, the cells were used for the experiment.
3T3L1-GLUT4myc adipocytes were incubated in Krebs-Ringer-HEPES buffer [136 mM NaCl, 4.7 mM KCl, 1.25 mM CaCl2, 1.25 mM MgSO4 and 20 mM HEPES, pH 7.5] containing 0.2% (w/v) bovine serum albumin and added with 10 mM glucose at 37° C. for 1 hr. The cells were incubated in the presence or absence of insulin, phospholipid or a derivative thereof for 20 min. Then, the cells were homogenized by sonication in an ice-cooled mitochondria buffer containing 1% (v/v) protease inhibitor cocktail [210 mM mannitol, 70 mM sucrose, and 1 mM ethylenediaminetetraacetic acid (EDTA), 10 mM HEPES, pH 7.5]. Sequentially, the homogenate was centrifuged at 4° C. for 5 min at 3,000 rpm. The supernatant was further centrifuged at 4° C. for 15 min at 11,000 rpm. […] The protein concentration of each fraction was measured using BCA protein assay kit (Thermo Fisher Scientific, Waltham, Mass., USA). […] The immunoreactivity was detected using ECL kit (Invitrogen), and visualized using a chemical luminescence detection system (chemiluminescence detection system; GE Healthcare, Piscataway, N.J., USA). The signal density was measured using an image analysis software (Image Gauge software; GE Healthcare).

CCCCC/C=C\C/C=C\CCCCCCCC(=O)OC[C@H](COP(=O)([O-])OCC[N+](C)(C)C)OC(=O)CCCCCCC/C=C\C/C=C\CCCCC [1,2-dilinoleoyl-sn-glycero-3-phosphocholine]
Improvement of spatial learning disorder and memory disorder [1]: improve spatial learning disorder and memory disorder induced by scopolamine

CCCCCCCC/C=C\CCCCCCCC(=O)O[C@H](COC(=O)CCCCCCCCCCCCCCC)COP(=O)([O-])OCC[N+](C)(C)C [1-palmitoyl-2-oleoyl-sn-glycero-3-phosphocholine]
Improvement of spatial learning disorder and memory disorder [1]: improve spatial learning disorder and memory disorder induced by scopolamine

CCCCCC1CC1CC1CC1CCCCCCCC(=O)O (centres unmarked) [DCP-LA, 8-[2-(2-Pentyl-cyclopropylmethyl)-cyclopropyl]-octanoic acid]
Enhancement of synapse transmission (LTP-like) [2]: can maintain stable LTP (long-teLm potentiation)-like enhancement of synapse transmission

CCCCC/C=C/C/C=C/CCCCCCCC(=O)OCC(COP(=O)(O)OCCN)OC(=O)CCCCCCC/C=C/C/C=C/CCCCC (centres unmarked) [dilinoleoyl•phosphatidylethanolamine]
Cell death induction suppressive activity / endoplasmic reticulum stress suppressive activity [3]: cell death induction suppressive activity, particularly, endoplasmic reticulum stress suppressive activity

insulin: insulin, comparison treatment in the GLUT4 trafficking analysis [reference compound]
Promotion of cellular membrane transport of GLUT4 [4]: an action to promote cellular membrane transport of GLUT4
